Experiments:
calf thymus DNA = assay: DNA binding affinity (association constants) by absorption and fluorescence; details: buffer containing 1 mM EDTA
Method: DNA binding efficiency. DNA binding affinities of acridine-viologen bifunctional molecules represented by compound of formula 1a and 1d were analyzed using calf thymus DNA, in NaCl buffer at different salt concentrations (2 mM and 100 mM). Test solutions containing different concentrations of calf thymus DNA in NaCl buffer were incubated at room temperature for one hour to complete the complexation and were analyzed using absorption and fluorescence techniques. […] The binding constants of viologen linked acridines with DNA were determined according to the reported procedures. References may be made to Peacocke, A. R.; Skerrett, J. N. H. Trans. Faraday Soc. 1956, 52, 261; McGhee, J. D.; von Hippel, P. H. J. Mol. Biol. 1974, 86, 469; Scatchard, G. Ann. N.Y. Acad. Sci 1949, 51, 660; Adam, W.; Cadet, J.; Dall'Acqua, F.; Epe, B.; Ramaiah, D.; Saha-Moller, C. R. Angew. Chem. Int. Ed. Engl. 1995, 34, 107). […] Further fluorescence lifetimes of these compounds were also examined in presence and absence of DNA.

PM2 DNA = assay: DNA relaxation assay: photoactivated cleavage of plasmid DNA with repair endonucleases; assay type: biochemical; details: 360 nm light; for damage sensitive to FPG protein with increase in the time of irradiation: 0° C., FIG. 5 and FIG. 6; for generation of single strand breaks (SSB) with irradiation time: irradiation for 30 min
Excerpt: Cleavage of plasmid DNA was followed by monitoring the conversion of supercoiled (Form I) to open circular relaxed (Form II) and linear (Form III). Plasmid DNA cleavage is a very sensitive technique and when combined with several repair endonucleases, it can serve as a kind of fingerprint of the species directly responsible for the damage. Induction of one single strand break (SSB) by a compound converts Form I to Form II and the quantification of which indicates its efficiency of DNA cleavage. A DNA relaxation assay was used to quantify SSB and endonuclease-sensitive modifications (Epe, B.; Helger, J.; Wild, D. Carcinogenesis 1989, 10, 2019 and Epe, B.; Mftzel, P.; Adam, W. Chem. Biol. Interactions 1988, 67, 149). This assay makes use of the fact that Form I when converted by either a single strand break (SSB) or the incision by a repair endonuclease leads to Form II, which migrates separately in agarose gel electrophoresis.
Phosphate-buffered (pH 7.0), air-saturated solutions of PM2 DNA (10 μg/mL) at 0° C. were irradiated with 360 nm near-UV irradiation in the presence of various concentrations of acridine-viologen bifunctional molecules represented by compound of formula 1a and 1b (wherein Y=—(CH2)n, wherein n=1-11; R=—MV^2+—(CH2)m—CH32X^⊖ or —Pyr^2+—(CH2)m—CH32X^⊖ and wherein Y=—(CH2)n, wherein n=1-11; R=—MV^2+—(CH2)m—Acr2X^⊖ or —Pyr^2+—(CH2)m—Acr2X^⊖ respectively). Subsequently, the DNA was analyzed for the following types of modifications: (i) DNA single and double strand breaks; (ii) sites of base loss (AP sites) recognized by exonuclease III; (iii) base modifications plus AP sites sensitive to the T4 endonuclease V; (iv) base modifications plus AP sites sensitive to the endonuclease III and (v) base modifications plus AP sites sensitive to formamidopyrimidine-DNA glycosylase (FPG protein).

Row | Molecule | K (DNA association constant) (calf thymus DNA; 2 mM NaCl) [M⁻¹] | K (DNA association constant) (calf thymus DNA; 100 mM NaCl) [M⁻¹] | damage sensitive to FPG protein with increase in the time of irradiation (PM2 DNA) | generation of single strand breaks (SSB) with irradiation time (PM2 DNA)
1 | CCCC[n+]1ccc(-c2cc[n+](CCCCCCCCCCCc3c4ccccc4nc4ccccc34)cc2)cc1.[Br-].[Br-] [1-[11-(acridin-9-yl)undecyl]-1′-butyl-4,4′-bipyridinium dibromide] | 5.24e+06 | 164000 | increases | No significant increase
2 | CCCC[n+]1ccc(-c2cc[n+](Cc3c4ccccc4nc4ccccc34)cc2)cc1.[Br-].[Br-] [1-[(acridin-9-yl)methyl]-1′-butyl-4,4′-bipyridinium dibromide] | 924000 | 101000 | increases | No significant increase
3 | bis-1,1′-[(acridin-9-yl)methyl]-4,4′-bipyridinium dibromide | 1.3e+06 | 390000 |  | 

From patent US6630481B2, “Viologen linked acridine based molecule and process for the preparation thereof” (Council of Scientific and Industrial Research of India, priority 2001, dated 2003)
